Measurements reported in patent US7199132B2, “Tropane analogs and methods for inhibition of monoamine transport” (Organix, Inc., priority 2001, dated 2007).
Read-outs that look alike come from different tables or passages of the source.

Columns and labels:
[1] = target: T1, serotonin transporter (Macaca mulatta, UniProt Q9MYX0); experiment: Serotonin transporter assay: inhibition of {3H}citalopram binding in caudate-putamen membranes; design: species or system rhesus or cynomolgus monkey; details: IC50 (nM) SERT, monkey caudate-putamen, mean of 2 or more independent experiments in triplicate
T1 construct: The serotonin transporter was assayed in caudate-putamen membranes using conditions similar to those for the dopamine transporter; from tissue; host or cells: caudate-putamen membranes of cynomolgus or rhesus monkey brain

[2] = target: T2, dopamine transporter (Macaca fascicularis, UniProt Q9GJT6); experiment: Dopamine transporter assay: inhibition of {3H}WIN 35,428 binding in caudate-putamen membranes; design: species or system rhesus or cynomolgus monkey; details: for SERT/DAT: selectivity ratio IC50 SERT / IC50 DAT; for IC50: inhibition of {3H}WIN 35,428 binding, mean of 2 or more independent experiments in triplicate
T2 construct: The caudate-putamen was dissected from coronal slices and yielded 1.4±0.4 g tissue; Membranes were prepared as described previously; from tissue; host or cells: caudate-putamen membranes of cynomolgus or rhesus monkey brain

[3] = IC50 (nM) DAT, monkey caudate-putamen

T2 sequence (Q9GJT6 whole entry): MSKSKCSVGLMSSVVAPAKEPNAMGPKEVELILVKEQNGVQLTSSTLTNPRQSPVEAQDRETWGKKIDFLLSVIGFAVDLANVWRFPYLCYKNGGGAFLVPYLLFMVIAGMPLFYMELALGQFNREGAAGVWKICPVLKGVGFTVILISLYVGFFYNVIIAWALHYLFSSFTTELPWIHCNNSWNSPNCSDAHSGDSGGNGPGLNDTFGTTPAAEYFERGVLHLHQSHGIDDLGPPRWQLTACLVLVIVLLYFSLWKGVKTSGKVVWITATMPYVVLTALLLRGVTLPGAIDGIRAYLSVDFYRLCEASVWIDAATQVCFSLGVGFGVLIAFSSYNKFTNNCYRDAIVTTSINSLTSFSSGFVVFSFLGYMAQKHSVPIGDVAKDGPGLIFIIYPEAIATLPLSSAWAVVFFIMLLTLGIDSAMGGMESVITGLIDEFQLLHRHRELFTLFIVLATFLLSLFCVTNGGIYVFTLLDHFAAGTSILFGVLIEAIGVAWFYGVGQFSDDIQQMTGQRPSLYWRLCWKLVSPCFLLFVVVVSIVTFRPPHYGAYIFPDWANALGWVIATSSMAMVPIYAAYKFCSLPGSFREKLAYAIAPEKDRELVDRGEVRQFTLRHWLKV
T1 sequence (Q9MYX0 whole entry): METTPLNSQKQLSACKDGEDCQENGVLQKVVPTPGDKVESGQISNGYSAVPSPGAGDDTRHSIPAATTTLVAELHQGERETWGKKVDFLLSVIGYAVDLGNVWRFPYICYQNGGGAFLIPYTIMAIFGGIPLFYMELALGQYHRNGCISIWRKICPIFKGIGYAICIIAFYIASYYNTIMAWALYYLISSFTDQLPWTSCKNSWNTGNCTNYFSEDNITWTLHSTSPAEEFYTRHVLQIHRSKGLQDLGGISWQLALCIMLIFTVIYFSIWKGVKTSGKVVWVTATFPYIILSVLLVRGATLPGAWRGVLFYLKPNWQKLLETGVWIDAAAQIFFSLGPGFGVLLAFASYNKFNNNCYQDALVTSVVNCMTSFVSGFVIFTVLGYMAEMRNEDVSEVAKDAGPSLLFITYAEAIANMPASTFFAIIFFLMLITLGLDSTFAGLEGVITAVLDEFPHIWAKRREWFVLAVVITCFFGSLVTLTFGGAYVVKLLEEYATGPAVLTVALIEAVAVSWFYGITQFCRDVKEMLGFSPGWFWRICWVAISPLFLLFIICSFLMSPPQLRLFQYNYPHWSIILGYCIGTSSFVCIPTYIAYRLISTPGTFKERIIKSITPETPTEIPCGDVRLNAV

Work on `COC(=O)C1=C(c2ccc(Cl)c(Cl)c2)C[C@@H]2[C@@H](O)C[C@H]1N2C` (racemic) [Compound 7a, 2-Carbomethoxy-3-(3,4-dichlorophenyl)-6β-hydroxy-8-methyl-8-azabicyclo{3.2.1}oct-2-ene] yielded an IC50 [1] of 3320 nM, a melting point of 94 to 96 °C and an SERT/DAT [2] of 60.
For `COC(=O)C1=C(c2ccc(Cl)c(Cl)c2)C[C@@H]2C[C@@H](O)[C@H]1N2C` (racemic) [Compound 8a, 2-Carbomethoxy-3-(3,4-dichlorophenyl)-7β-hydroxy-8-methyl-8-azabicyclo{3.2.1}oct-2-ene], the IC50 [1] was greater than 6000 nM and the melting point was 130.4 to 132.4 °C.
Molecule `COC(=O)C1=C(c2ccc(F)cc2)C[C@@H]2C[C@@H](O)[C@H]1N2C` (racemic) [Compound 8c, 2-Carbomethoxy-3-(4-fluorophenyl)-7β-hydroxy-8-methyl-8-azabicyclo{3.2.1}oct-2-ene] has an IC50 [1] greater than 10000 nM and an SERT/DAT [2] of 1.
In the case of `COC(=O)C1=C(c2ccccc2)C[C@@H]2C[C@@H](O)[C@H]1N2C` (racemic) [Compound 8d, 2-Carbomethoxy-3-phenyl-7β-hydroxy-8-methyl-8-azabicyclo{3.2.1}oct-2-ene], the IC50 [1] is reported as greater than 10000 nM, the melting point is reported as 113 to 114 °C and the IC50 [2, 3] is reported as greater than 10000 nM. It also gave an SERT/DAT [2] of 1.
Molecule `COC(=O)C1C(c2ccc(Cl)c(Cl)c2)CC2CC(O)C1N2C` (racemic) [Compound 15a, 2β-Carbomethoxy-3β-(3,4-dichlorophenyl)-7β-hydroxy-8-methyl-8-azabicyclo{3.2.1}octane] has an IC50 [1] of 27.7 nM, a melting point of 185.5 to 186.5 °C and an SERT/DAT [2] of 20.
For `COC(=O)[C@@H]1[C@H]2[C@H](O)C[C@@H](C[C@@H]1c1ccc(F)cc1)N2C` (racemic) [Compound 15c, 2β-Carbomethoxy-3β-(4-fluorophenyl)-7β-hydroxy-8-methyl-8-azabicyclo{3.2.1}octane], the IC50 [1] was greater than 10000 nM, the melting point was 179.3 to 181.3 °C and the SERT/DAT [2] was greater than 80.
Molecule `COC(=O)[C@@H]1[C@H]2[C@H](O)C[C@@H](C[C@@H]1c1ccccc1)N2C` (racemic) [Compound 15d, 2β-Carbomethoxy-3β-phenyl-7β-hydroxy-8-methyl-8-azabicyclo{3.2.1}octane] has an IC50 [1] greater than 10000 nM and a melting point of 165.8 to 167.8 °C.
Molecule `COC(=O)C1=C(c2ccccc2)C[C@@H]2CC[C@H]1N2C` (relative stereo) [Compound 6d, reference compound] has an IC50 [1] of 28600 nM and an SERT/DAT [2] of 11.
For `COC(=O)[C@H]1[C@@H](c2ccccc2)C[C@@H]2CC[C@H]1N2C` (relative stereo) [Compound 13d, reference compound], the IC50 [2, 3] was 65 nM.
`COC(=O)[C@@H]1[C@H]2CC[C@@H](C[C@H]1c1ccc3ccccc3c1)N2C` (relative stereo) [Compound 16b, reference compound] showed an IC50 [2, 3] of 0.57 nM and an SERT/DAT [2] of 10.
Molecule `COC(=O)[C@@H]1[C@H]2CC[C@@H](C[C@H]1c1ccc(F)cc1)N2C` (relative stereo) [Compound 16c, reference compound] has an SERT/DAT [2] of 63.
`COC(=O)[C@@H]1[C@H]2C[C@H](O)[C@@H](C[C@H]1c1ccc(Cl)c(Cl)c1)N2C` (relative stereo) [Compound 17a, 2β-Carbomethoxy-3α-(3,4-dichlorophenyl)-6β-hydroxy-8-methyl-8-azabicyclo{3.2.1}octane] showed a melting point of 129.1 to 131.1 °C and an SERT/DAT [2] of 238.
Molecule `COC(=O)[C@@H]1[C@H]2C[C@H](O)[C@@H](C[C@H]1c1ccc(F)cc1)N2C` (relative stereo) [Compound 17c, 2β-Carbomethoxy-3α-(4-fluorophenyl)-6β-hydroxy-8-methyl-8-azabicyclo{3.2.1}octane] has a melting point of 148 to 150 °C and an SERT/DAT [2] of 8.
In the case of `COC(=O)[C@@H]1[C@H]2C[C@H](O)[C@@H](C[C@H]1c1ccccc1)N2C` (relative stereo) [Compound 17d, 2β-Carbomethoxy-3α-phenyl-6β-hydroxy-8-methyl-8-azabicyclo{3.2.1}octane], the melting point is reported as 138 to 140 °C and the SERT/DAT [2] is reported as greater than 3.
For `COC(=O)[C@@H]1[C@H]2[C@H](O)C[C@@H](C[C@H]1c1ccc(Cl)c(Cl)c1)N2C` (relative stereo) [Compound 18a, 2β-Carbomethoxy-3α-(3,4-dichlorophenyl)-7β-hydroxy-8-methyl-8-azabicyclo{3.2.1}octane], the melting point was 148.5 to 150 °C.
`COC(=O)[C@@H]1[C@H]2[C@H](O)C[C@@H](C[C@H]1c1ccccc1)N2C` (relative stereo) [Compound 18d, 2β-Carbomethoxy-3α-phenyl-7β-hydroxy-8-methyl-8-azabicyclo{3.2.1}octane] gave a melting point of 165 to 167 °C.
Work on `COC(=O)[C@H]1[C@@H](c2ccc(Cl)c(Cl)c2)C[C@@H]2CC(=O)[C@H]1N2C` (relative stereo) [Compound 19, 2β-Carbomethoxy-3β-(3,4-dichlorophenyl)-8-methyl-8-azabicyclo{3.2.1}oct-7-one] yielded an IC50 [1] of 290 nM and a melting point of 84.4 to 86.4 °C.
With `COC(=O)[C@@H]1[C@H]2C[C@@H](O)[C@@H](C[C@H]1c1ccc(Cl)c(Cl)c1)N2C` (relative stereo) [Compound 30a, 2β-Carbomethoxy-3α-(3,4-dichlorophenyl)-6α-hydroxy-8-methyl-8-azabicyclo{3.2.1}octane] the IC50 [1] was 10700 nM and the melting point was 161.2 to 162.2 °C.
`COC(=O)[C@@H]1[C@H]2[C@@H](O)C[C@@H](C[C@H]1c1ccc(Cl)c(Cl)c1)N2C` (relative stereo) [Compound 30b, 2β-Carbomethoxy-3α-(3,4-dichlorophenyl)-7α-hydroxy-8-methyl-8-azabicyclo{3.2.1}octane] showed an IC50 [1] of 991 nM and a melting point of 121 to 123 °C.
With `COC(=O)[C@@H]1[C@H]2C[C@H](O)[C@@H](C[C@H]1OC(c1ccc(F)cc1)c1ccc(F)cc1)N2C` (relative stereo) [Compound 32a, 2β-Carbomethoxy-3α-bis(4-fluorophenyl)methoxy-6β-hydroxy-8-methyl-8-azabicyclo{3.2.1}octane] the IC50 [1] was 4850 nM.
Molecule `COC(=O)[C@@H]1[C@H]2[C@H](O)C[C@@H](C[C@H]1OC(c1ccc(F)cc1)c1ccc(F)cc1)N2C` (relative stereo) [Compound 32b, 2β-Carbomethoxy-3α-bis(fluorophenyl)methoxy-7β-hydroxy-8-methyl-8-azabicyclo{3.2.1}octane] has an IC50 [1] of 9560 nM and a melting point of 150 to 152 °C.
Work on `COC(=O)C1C(c2ccc(Cl)c(Cl)c2)CC2CC(O)C1N2C` (single isomer, unassigned) [(1R)-15a] yielded an IC50 [1] of 139 nM, an IC50 [2, 3] of 265 to 2690 nM and an SERT/DAT [2] of 0.05.
For `COC(=O)C1C(c2ccc(Cl)c(Cl)c2)CC2CC(O)C1N2C` (single isomer, unassigned) [(1S)-15a], the IC50 [1] was 15 nM, the IC50 [2, 3] was 0.3 to 7.4 nM and the “fold more selective (DAT vs SERT) than 13a” value ([2]; compared with 13a) was 25 fold. The SERT/DAT [2] was 50.
`COC(=O)C1C(c2ccc(Cl)c(Cl)c2)CC2CC(O)C1N2C` (single isomer, unassigned) [Compound (1R)-18a] gave an IC50 [2, 3] of 265 to 2690 nM.
With `COC(=O)C1C(c2ccc(Cl)c(Cl)c2)CC2CC(O)C1N2C` (single isomer, unassigned) [Compound (1S)-18a] the IC50 [2, 3] was 0.3 to 7.4 nM, the “fold more selective (DAT vs SERT) than 16a” value ([2]; compared with 16a) was 22 fold and the “fold more selective (DAT vs SERT) than (1S)-15a” value ([2]; compared with (1S)-15a) was 32 fold.
For `COC(=O)C1=C(c2ccc(Cl)c(Cl)c2)C[C@H]2C[C@H](O)[C@@H]1N2C` [(1R)-8a, (1R)-2-Carbomethoxy-3-(3,4-dichlorophenyl)-7β-hydroxy-8-methyl-8-azabicyclo{3.2.1}oct-2-ene], the IC50 [1] was 1590 nM and the IC50 [2, 3] was 265 to 2690 nM.
In the case of `COC(=O)C1=C(c2ccc(Cl)c(Cl)c2)C[C@@H]2C[C@@H](O)[C@H]1N2C` [(1S)-8a, (1S)-2-Carbomethoxy-3-(3,4-dichlorophenyl)-7β-hydroxy-8-methyl-8-azabicyclo{3.2.1}oct-2-ene], the IC50 [1] is reported as 5370 nM.
In the case of `COC(=O)C1=C(c2ccc(Cl)c(Cl)c2)CC2CCC1N2C` (centres unmarked) [Compound 6a, reference compound], the IC50 [1] is reported as 867 nM, the IC50 [2, 3] is reported as 1.16 nM and the SERT/DAT [2] is reported as 747.
`COC(=O)C1=C(c2ccc3ccccc3c2)CC2CCC1N2C` (centres unmarked) [Compound 6b, reference compound] gave an IC50 [1] of 109 nM, an IC50 [2, 3] of 2.94 nM and an SERT/DAT [2] of 37.
With `COC(=O)C1=C(c2ccc(F)cc2)CC2CCC1N2C` (centres unmarked) [Compound 6c, reference compound] the IC50 [1] was 7990 nM, the IC50 [2, 3] was 408 nM and the SERT/DAT [2] was 20.
`COC(=O)[C@H]1[C@@H](c2ccc(Cl)c(Cl)c2)C[C@@H]2CC[C@H]1N2C` [Compound 13a, (1R)-3β-(3,4-di-chlorophenyl)-tropane-2β-carboxylic acid methyl ester, reference compound] showed an IC50 [1] of 2.47 nM and an SERT/DAT [2] of 2.
Molecule `COC(=O)C1C(c2ccc3ccccc3c2)CC2CCC1N2C` (centres unmarked) [Compound 13b, reference compound] has an SERT/DAT [2] of 5.
Molecule `COC(=O)[C@H]1[C@@H](c2ccc(F)cc2)C[C@@H]2CC[C@H]1N2C` [Compound 13c, (1R)-3β-(4-fluorophenyl)tropane-2β-carboxylic acid methyl ester, reference compound] has an IC50 [1] of 160 nM, an IC50 [2, 3] of 11 nM and an SERT/DAT [2] of 15.
`COC(=O)[C@@H]1[C@H]2CC[C@@H](C[C@H]1c1ccc(Cl)c(Cl)c1)N2C` [Compound 16a, reference compound] gave an IC50 ([2]; monkey caudate-putamen, read-out: IC50 (nM) DAT) of 0.38 nM and an SERT/DAT [2] of 73.
In the case of `COC(=O)C1C(c2ccc(Cl)c(Cl)c2)CC2C[C@@H](O)C1N2C` (some centres unmarked) [Compound 33], the IC50 [1] is reported as 533 nM and the “potency at the DAT relative to cocaine” value ([2]; compared with cocaine) is reported as “almost twice as potent as cocaine”.
In the case of `COC(=O)C1C(c2ccccc2)CC2[C@@H](O)CC1N2C` (some centres unmarked) [Compound 34], the IC50 [1] is reported as greater than 20000 nM and the “inhibition of {3H}WIN 35,428 binding, result in words” value ([2]; monkey caudate-putamen) is reported as “inactive”.
